{"source": "patent US20230339835A1", "about": "“2,3,5-TRIMETHYL-6-NONYLCYCLOHEXA-2,5-DIENE-1,4-DIONE FOR SUPPRESSING AND TREATING ALPHA-SYNUCLEINOPATHIES, TAUOPATHIES, AND OTHER DISORDERS” (PTC THERAPEUTICS, INC., priority 2018, published 2023)", "key": {"[1]": {"assay": "Solubility in simulated fluids and water", "format": "physicochemical", "conditions": "for solubility at 24 h: thermodynamic from solid", "description": "Solubility of Pattern A and melted solid was assessed in Fasted-State Simulated Gastric Fluid (FaSSGF), Fed-State Simulated Intestinal Fluid (FeSSIF), and Fasted-State Simulated Intestinal Fluid (FaSSIF), water, and 0.5% methyl cellulose+2% Tween80 in water. Five foil-covered 4 mL vials were prepared with 11-13 mg of as-received material (ID-1-1), 10 mm stir bars were included. Five foil-covered 4 mL vials containing between 11-13 mg of C9 were melted on a hot plate at 70° C. for 10 min and cooled to room temperature for 5 min, 10 mm stir bars were included.\nSlurries were prepared with the as-received material ID-1-1 (Pattern A) and melted C9, each in 2.5 mL of simulated fluids (including 0.5% methyl cellulose+2% Tween80 in water), or water. The samples containing melted active pharmaceutical ingredient (API) were sonicated briefly, as they appeared to contain clumps of material. […] For solubility analysis 1 mL of each sample was pipetted into a syringe filter, the first 0.5 mL was filtered back into the source vial and the remaining 0.5 mL was filtered into HPLC vials with low volume inserts.\nThe response factor calculated with the calibration points was used to determine the concentrations of API in the simulated fluids and water. Calibration samples were prepared with as-received material (ID-1-1) in ACN. The concentrations and peak areas for each calibration point were plotted and a response factor calculated for solubility assessment.\nDue to high pressures observed with the UPLC column, a different column and a modified method was employed for 24 h data points with 0.5% methyl cellulose+2% Tween80 in water, and 24 h in water (ID-30-4, ID-30-9 and ID-30-10). HPLC samples of ID-30-4 and 30-9 (those containing the methyl cellulose/Tween80 mixture) were diluted 10× with ACN. These samples plus a new set of injections of the calibration points were analyzed, a new response factor was determined, and the solubility of the remaining samples was calculated (response factor: 8084.7908; R2: 0.9989)."}, "[2]": {"assay": "Humidification cycling by dynamic vapor sorption (DVS)", "format": "physicochemical", "description": "As-received material (ID 1-1) was subjected to humidification cycling by dynamic vapor sorption (DVS) instrument. The material underwent a 0.01% change in mass in the 15-75% relative humidity range, and a 0.08% change in mass over the full range of 2-95% relative humidity. Following humidification cycling, the solid was analyzed by XRPD."}}, "note": "Marks after values point to notes of the source that are not given here.", "data": [{"smiles": "CCCCCCCCCC1=C(C)C(=O)C(C)=C(C)C1=O", "note": "[Melted Pattern A, 2,3,5-trimethyl-6-nonylcyclohexa-2,5-diene-1,4-dione]", "values": [{"measurement": "Solubility at 24 hours (mg/mL)", "setting": "[1]; 0.5% MC + 2% Tween80 (aq), Phenomenex Luna Phenyl Hexyl HPLC column and modified method, listed as A (melted)", "value": "0.28# mg/mL"}, {"measurement": "Conc. (mg/mL) at 30 min", "setting": "[1]; 0.5% MC + 2% Tween80 (aq.), listed as A (melted)", "value": 0.22, "unit": "mg/mL"}, {"measurement": "solubility at 24 h", "setting": "[1]; 0.5% methyl cellulose + 2% Tween80 in water, aqueous with cosolvent or surfactant or cyclodextrin, 0.5% MC + 2% Tween80 (aq), Phenomenex Luna Phenyl Hexyl HPLC column and modified method", "value": 0.28, "unit": "mg/mL"}, {"measurement": "Conc. (mg/mL) at 30 min", "setting": "[1]; FaSSGF", "value": "BDL"}, {"measurement": "Solubility at 24 hours (mg/mL)", "setting": "[1]; FaSSGF", "value": "BDL"}, {"measurement": "Conc. (mg/mL) at 30 min", "setting": "[1]; FaSSIF, listed as A (melted)", "value": 0.02, "unit": "mg/mL"}, {"measurement": "solubility at 24 h", "setting": "[1]; Fasted-State Simulated Intestinal Fluid (FaSSIF), fassif", "value": 0.04, "unit": "mg/mL"}, {"measurement": "Conc. (mg/mL) at 30 min", "setting": "[1]; FeSSIF, listed as A (melted)", "value": 0.25, "unit": "mg/mL"}, {"measurement": "solubility at 24 h", "setting": "[1]; Fed-State Simulated Intestinal Fluid (FeSSIF), fessif", "value": 0.2, "unit": "mg/mL"}, {"measurement": "Conc. (mg/mL) at 30 min", "setting": "[1]; water", "value": "BDL"}, {"measurement": "Solubility at 24 hours (mg/mL)", "setting": "[1]; water", "value": "BDL"}, {"measurement": "Solubility at 24 hours (mg/mL)", "setting": "[1]; water, listed as A (melted)", "value": "BDL#"}, {"measurement": "DVS Change Mass (wt. %)", "setting": "[2]; 2-95% RH", "value": 0.073, "unit": "wt. %"}, {"measurement": "DVS Change Mass (wt. %)", "setting": "[2]; 15-75% RH", "value": 0.044, "unit": "wt. %"}]}]}
